Test results as given in PubChem BioAssay (NCI).
Where “and” joins values, the source holds several entries; their conditions need not be identical. Identical values can stand only once.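 Cells were grown in 96-well plates and exposed to each compound for 48 hours at five concentrations; endpoints were interpolated linearly between bracketing concentrations, or set to the highest concentration if not reached. At the GI50, growth is halved. TGI marks complete inhibition of growth.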

Legend:
Assay in all cases: DTP human tumour cell line panel, 48 h
HOP-92 NSCLC = system: HOP-92 NSCLC
786-0 renal = system: 786-0 renal
CCRF-CEM leukemia = system: CCRF-CEM leukemia
A498 renal = system: A498 renal
ACHN renal = system: ACHN renal
HCT-116 colon = system: HCT-116 colon
HOP-62 NSCLC = system: HOP-62 NSCLC
SF-539 CNS = system: SF-539 CNS
UACC-257 melanoma = system: UACC-257 melanoma
OVCAR-4 ovarian = system: OVCAR-4 ovarian

| SMILES | TGI (HOP-92 NSCLC) | TGI (786-0 renal) | TGI (CCRF-CEM leukemia) | TGI (A498 renal) | TGI (ACHN renal) | TGI (HCT-116 colon) | TGI (HOP-62 NSCLC) | TGI (SF-539 CNS) | TGI (UACC-257 melanoma) | TGI (OVCAR-4 ovarian) | GI50 (HOP-92 NSCLC) | GI50 (786-0 renal) | GI50 (CCRF-CEM leukemia) | GI50 (A498 renal) | GI50 (ACHN renal) | GI50 (HCT-116 colon) | GI50 (HOP-62 NSCLC) | GI50 (SF-539 CNS) | GI50 (UACC-257 melanoma) | GI50 (OVCAR-4 ovarian) |
| --- | --- | --- | --- | --- | --- | --- | --- | --- | --- | --- | --- | --- | --- | --- | --- | --- | --- | --- | --- | --- |
| CC(C)S(=O)(=O)n1c(N)nc2ccc(/C(=N/O)c3ccccc3)cc21 | 41.1 µM | > 100 µM | 57.2 µM | 31.7 µM | 57.8 µM | 40.2 µM | 40.8 µM | 49.6 µM | > 100 µM | > 100 µM | – | – | – | – | – | – | – | – | – | – |
| O=C(N/N=C\c1cc(Cl)ccc1O)N/N=C/c1cc(Cl)ccc1O | 9.48 µM | > 100 µM | > 100 µM | > 100 µM | > 100 µM | > 100 µM | > 100 µM | > 100 µM | > 100 µM | > 100 µM | 0.99 µM | > 100 µM | 2.51 µM | > 100 µM | 1.17 µM | 0.565 µM | 2.49 µM | 2.32 µM | 6.6 µM | 0.871 µM |
| O=C(/C=C/c1cccs1)Nc1ncc(Cc2ccccc2F)s1 | > 100 µM | > 100 µM | > 100 µM | 0.899 µM | > 100 µM | > 100 µM | > 100 µM | 0.649 µM | > 100 µM | > 100 µM | 1.39 µM | 0.59 µM | 0.254 µM | 0.175 µM | 0.462 µM | 0.273 µM | 0.407 µM | 0.219 µM | > 100 µM | 0.791 µM |
| CCOC(=O)c1cc2cc([N+](=O)[O-])ccc2oc1=O | > 100 µM | > 100 µM | > 100 µM | > 100 µM | > 100 µM | > 100 µM | > 100 µM | > 100 µM | > 100 µM | > 100 µM | – | – | – | – | – | – | – | – | – | – |
| COc1cc([N+](=O)[O-])c2ncccc2c1O | > 100 µM | > 100 µM | > 100 µM | 4.25 µM | > 100 µM | 82.6 µM | 4.96 µM | 9.41 µM | 7.65 µM | > 100 µM | 47.1 µM | 17.9 µM | 95.2 µM | 1.31 µM | 6.08 µM | 4.26 µM | 2.05 µM | 2.59 µM | 2.56 µM | 26.6 µM |
| CCc1ccc(/C=C2/SC(=S)NC2=O)cc1 | 26.4 µM | 81.3 µM | > 80.4 µM | 36.4 µM | > 100 µM | 59.5 µM | 78.2 µM | 56.6 µM | 61.3 µM | > 93.3 µM | 3.41 µM | 22.6 µM | 22.6 µM | 6.15 µM | 27.2 µM | 21 µM | 25.7 µM | 21 µM | 17.7 µM | 20 µM |
| C=C(C)[C@@H]1CC[C@]2(C#N)CC[C@]3(C)[C@H](CC[C@@H]4[C@@]5(C)CCCNC(C)(C)[C@@H]5CC[C@]43C)[C@@H]12 | 11.3 µM | 3.07 µM | 9.38 µM | 23 µM | 3.22 µM | 3.19 µM | 3.29 µM | 3.11 µM | 4.3 µM | 4.44 µM | 2.69 µM | 1.69 µM | 2.73 µM | 10.1 µM | 1.83 µM | 1.75 µM | 1.65 µM | 1.67 µM | 2.27 µM | 2.16 µM |
| COc1cc(Nc2ncc(-c3ccccc3)o2)cc(OC)c1OC | > 25 µM | > 25 µM | > 25 µM | > 7.47 µM | > 25 µM | > 25 µM | > 25 µM | > 25 µM | > 25 µM | > 25 µM | 4.27 µM | 5.13 µM | 7.32 µM | 0.607 µM | 1.18 µM | 1.45 µM | 3.47 µM | 1.53 µM | > 15.9 µM | 1.05 µM |
| N#CC(C#N)=C/C=C/c1cccc([N+](=O)[O-])c1 | 7.71 µM | 3.17 µM | 15.2 µM | 5.21 µM | 2.22 µM | 1.1 µM | 6.39 µM | 18.4 µM | 3.94 µM | 13.9 µM | 2.43 µM | 1.51 µM | 0.556 µM | 1.99 µM | 0.927 µM | 0.277 µM | 1.81 µM | 2.55 µM | 1.33 µM | 3.09 µM |
| O=C(O)C(O)C(O)C1[O][Sb][O]C1CO (stereo not given) | > 100 µM | > 100 µM | > 100 µM | > 100 µM | > 100 µM | > 100 µM | > 100 µM | > 100 µM | > 100 µM | > 100 µM | > 100 µM | > 100 µM | 33.3 µM and 18.9 µM | > 100 µM | > 100 µM | > 100 µM | > 100 µM | > 100 µM | > 100 µM | > 100 µM |
| Cc1ccc(S(=O)(=O)ON=C2CC(c3ccccc3)N(C)C(c3ccccc3)C2)cc1 (stereo not given) | 43.5 µM and 46.7 µM | 44.9 µM and 58.5 µM | > 100 µM | 70.8 µM | 50.7 µM | 29.6 µM and 27.5 µM | 68.4 µM and 98.2 µM | 36 µM | 52.2 µM and 58 µM | 38.4 µM and 40.3 µM | – | – | – | – | – | – | – | – | – | – |
| Cc1ccc(Nc2ccnc(Nc3cccc(C(N)=O)c3)n2)cc1O | 8.25 µM | > 25 µM | > 25 µM | > 25 µM | > 25 µM | > 25 µM | > 19 µM | 11.1 µM | > 25 µM | > 25 µM | 0.891 µM | 8.09 µM | 7.99 µM | 7.31 µM | 4.32 µM | 8.01 µM | 5.5 µM | 3.46 µM | 15.5 µM | 6.19 µM |
| Fc1cc(Nc2ccc3c(OCCCN4CCOCC4)cccc3n2)ccc1Cl | 6.26 µM | 3.53 µM | 8.66 µM | 6.73 µM | 10.8 µM | 7.16 µM | 3.43 µM | 4.01 µM | 4.25 µM | 88.5 µM | 2.4 µM | 1.79 µM | 2.48 µM | 2.42 µM | 3.09 µM | 2.76 µM | 1.71 µM | 1.95 µM | 2.18 µM | 3.75 µM |
